Test results reported in ChEMBL document CHEMBL1133572, “Protease inhibitors: current status and future prospects” (J Med Chem, 2000).
Non-standard residues stand in square brackets, D forms with d. Residues, ends and D or L forms follow the SMILES beside them. *: point of attachment. Cbz = O=C(OCc1ccccc1)*; Dap = NC[C@H](N)C(=O)O

Tests used:
[1] = oral bioavailability in dogs and monkeys.; format: ADME, organism-based, Canis lupus familiaris; settings: dog, in vivo, read-out: Bioavailabiility
Enterovirus = test: Inhibitory activity against the different replication of HRV serotypes and related piocornaviruses A21 and B3, enterovirus 70 and echo virus 11; format: functional, organism-based
[2] = Inhibitory concentration required to reduce hemorrhage by 50%at the dose of 15 n mol /animal,72 hr prior to elastase.; format: functional
Neprilysin = target: T1, Neprilysin (Rattus norvegicus, UniProt P07861); test: Inhibitory activity against neutral Endopeptidase
T1 sequence (P07861 whole entry): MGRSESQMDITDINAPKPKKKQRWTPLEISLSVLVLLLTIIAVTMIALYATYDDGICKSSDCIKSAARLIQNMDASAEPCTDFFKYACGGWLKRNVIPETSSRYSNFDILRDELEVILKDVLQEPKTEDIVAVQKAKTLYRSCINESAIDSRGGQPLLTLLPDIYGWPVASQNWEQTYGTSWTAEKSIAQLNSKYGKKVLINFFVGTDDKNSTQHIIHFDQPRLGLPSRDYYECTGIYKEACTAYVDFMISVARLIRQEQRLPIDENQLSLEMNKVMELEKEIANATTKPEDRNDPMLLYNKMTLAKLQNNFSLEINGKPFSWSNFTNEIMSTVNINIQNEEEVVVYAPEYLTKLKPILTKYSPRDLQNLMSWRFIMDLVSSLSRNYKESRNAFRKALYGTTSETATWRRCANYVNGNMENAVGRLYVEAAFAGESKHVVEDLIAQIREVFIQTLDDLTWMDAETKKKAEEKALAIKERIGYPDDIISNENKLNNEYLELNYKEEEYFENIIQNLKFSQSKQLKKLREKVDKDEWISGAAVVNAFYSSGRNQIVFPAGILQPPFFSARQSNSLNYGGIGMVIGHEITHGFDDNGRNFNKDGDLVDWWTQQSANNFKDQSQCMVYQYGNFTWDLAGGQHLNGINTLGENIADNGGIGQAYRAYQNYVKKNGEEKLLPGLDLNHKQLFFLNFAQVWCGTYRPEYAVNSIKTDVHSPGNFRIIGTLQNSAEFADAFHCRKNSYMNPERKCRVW

[3] = The inhibition against liver metastases at 100 ug/mL.; format: ADME, tissue-based
Cricetinae gen. sp. = test: Inhibitory concentration against elastase; format: functional, Cricetulus griseus; settings: read-out: ID50 (the source's name)
[4] = Cmax value at the period of 800 mg po for every 8 hr.; format: ADME, organism-based; design: dose 800 mg, route oral; settings: in vivo
[5] = Oral bioavailability in dog; format: ADME, organism-based, Canis lupus familiaris; settings: in vivo
[6] = Tmax value of the compound; format: ADME
Cathepsin D = Cathepsin D (Homo sapiens, UniProt P07339); test: Inhibitory concentration against human cathepsin D.
[7] = Half life in dogs.; format: ADME, organism-based, Canis lupus familiaris; settings: dog, in vivo
Pepsin A = Pepsin A (Sus scrofa, UniProt P00791); test: Inhibitory concentration against porcine pepsin
[8] = oral bioavailability in marmosets; format: ADME, organism-based; settings: callithrix, in vivo, read-out: Bioavailabiility
[9] = oral bioavailability in cynomolgus monkeys; format: ADME, organism-based, Macaca fascicularis; settings: cynomolgus monkey, in vivo, read-out: Bioavailabiility
Renin = target: T2, Renin (Homo sapiens, UniProt P00797)
T2 sequence (P00797 whole entry): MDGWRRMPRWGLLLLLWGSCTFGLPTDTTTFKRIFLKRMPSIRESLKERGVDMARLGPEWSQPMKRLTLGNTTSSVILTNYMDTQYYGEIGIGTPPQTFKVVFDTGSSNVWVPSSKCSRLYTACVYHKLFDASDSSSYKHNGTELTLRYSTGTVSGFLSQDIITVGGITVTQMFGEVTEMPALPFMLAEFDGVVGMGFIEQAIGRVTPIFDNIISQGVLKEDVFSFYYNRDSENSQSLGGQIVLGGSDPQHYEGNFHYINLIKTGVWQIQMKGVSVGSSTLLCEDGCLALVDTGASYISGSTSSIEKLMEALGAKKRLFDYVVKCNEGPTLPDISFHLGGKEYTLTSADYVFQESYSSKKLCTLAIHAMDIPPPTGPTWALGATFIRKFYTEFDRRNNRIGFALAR

[10] = Cmax value of the compound; format: ADME, organism-based; settings: in vivo
[11] = target: Matrix metalloproteinase-9 (Homo sapiens, UniProt P14780)
Interstitial collagenase = target: T3, Interstitial collagenase (Homo sapiens, UniProt P03956)
T3 sequence (P03956 whole entry): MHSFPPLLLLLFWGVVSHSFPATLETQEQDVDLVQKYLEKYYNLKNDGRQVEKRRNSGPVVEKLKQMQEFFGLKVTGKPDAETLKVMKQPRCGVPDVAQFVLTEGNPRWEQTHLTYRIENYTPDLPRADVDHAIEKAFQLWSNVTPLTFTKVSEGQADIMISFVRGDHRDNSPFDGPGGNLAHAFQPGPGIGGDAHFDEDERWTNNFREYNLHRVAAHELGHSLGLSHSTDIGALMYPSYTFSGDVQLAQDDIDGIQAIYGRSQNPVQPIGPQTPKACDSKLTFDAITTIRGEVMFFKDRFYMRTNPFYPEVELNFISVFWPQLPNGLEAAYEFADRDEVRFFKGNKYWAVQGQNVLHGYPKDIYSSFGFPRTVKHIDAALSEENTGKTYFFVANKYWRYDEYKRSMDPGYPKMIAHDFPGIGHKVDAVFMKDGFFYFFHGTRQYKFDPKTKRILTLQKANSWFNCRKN

[12] = target: 72 kDa type IV collagenase (Homo sapiens, UniProt P08253)
Collagenase 3 = Collagenase 3 (Homo sapiens, UniProt P45452)
Prothrombin = Prothrombin (Homo sapiens, UniProt P00734)

Chain of Matrix metalloproteinase-9 (P14780 whole entry): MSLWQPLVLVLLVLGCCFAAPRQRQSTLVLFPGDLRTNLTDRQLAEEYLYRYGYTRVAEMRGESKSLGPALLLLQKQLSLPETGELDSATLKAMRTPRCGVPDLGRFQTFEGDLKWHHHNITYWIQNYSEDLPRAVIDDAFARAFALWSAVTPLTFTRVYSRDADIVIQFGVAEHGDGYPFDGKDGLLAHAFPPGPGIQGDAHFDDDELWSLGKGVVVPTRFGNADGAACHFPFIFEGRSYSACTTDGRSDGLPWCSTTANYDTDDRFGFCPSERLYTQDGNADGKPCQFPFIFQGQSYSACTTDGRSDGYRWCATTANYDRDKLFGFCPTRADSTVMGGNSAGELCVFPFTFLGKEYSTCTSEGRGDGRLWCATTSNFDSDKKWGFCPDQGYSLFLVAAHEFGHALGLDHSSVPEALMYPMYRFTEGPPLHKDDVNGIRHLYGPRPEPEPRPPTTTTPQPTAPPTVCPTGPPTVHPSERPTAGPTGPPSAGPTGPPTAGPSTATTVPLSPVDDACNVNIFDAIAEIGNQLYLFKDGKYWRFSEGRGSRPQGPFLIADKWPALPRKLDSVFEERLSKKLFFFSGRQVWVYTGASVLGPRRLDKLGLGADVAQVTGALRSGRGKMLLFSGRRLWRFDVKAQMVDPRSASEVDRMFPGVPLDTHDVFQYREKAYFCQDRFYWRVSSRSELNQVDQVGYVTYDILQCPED
Chain of Pepsin A (P00791 whole entry): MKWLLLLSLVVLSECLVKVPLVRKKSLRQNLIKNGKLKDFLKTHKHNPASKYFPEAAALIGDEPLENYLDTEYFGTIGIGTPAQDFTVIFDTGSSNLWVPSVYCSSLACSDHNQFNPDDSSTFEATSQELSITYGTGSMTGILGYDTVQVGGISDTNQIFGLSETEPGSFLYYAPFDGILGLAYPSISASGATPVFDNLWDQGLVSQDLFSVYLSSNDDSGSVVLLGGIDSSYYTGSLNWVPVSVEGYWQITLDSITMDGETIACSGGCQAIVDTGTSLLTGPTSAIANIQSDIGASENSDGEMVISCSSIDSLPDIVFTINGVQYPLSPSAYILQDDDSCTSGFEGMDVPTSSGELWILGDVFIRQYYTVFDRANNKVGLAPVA
Chain of 72 kDa type IV collagenase (P08253 whole entry): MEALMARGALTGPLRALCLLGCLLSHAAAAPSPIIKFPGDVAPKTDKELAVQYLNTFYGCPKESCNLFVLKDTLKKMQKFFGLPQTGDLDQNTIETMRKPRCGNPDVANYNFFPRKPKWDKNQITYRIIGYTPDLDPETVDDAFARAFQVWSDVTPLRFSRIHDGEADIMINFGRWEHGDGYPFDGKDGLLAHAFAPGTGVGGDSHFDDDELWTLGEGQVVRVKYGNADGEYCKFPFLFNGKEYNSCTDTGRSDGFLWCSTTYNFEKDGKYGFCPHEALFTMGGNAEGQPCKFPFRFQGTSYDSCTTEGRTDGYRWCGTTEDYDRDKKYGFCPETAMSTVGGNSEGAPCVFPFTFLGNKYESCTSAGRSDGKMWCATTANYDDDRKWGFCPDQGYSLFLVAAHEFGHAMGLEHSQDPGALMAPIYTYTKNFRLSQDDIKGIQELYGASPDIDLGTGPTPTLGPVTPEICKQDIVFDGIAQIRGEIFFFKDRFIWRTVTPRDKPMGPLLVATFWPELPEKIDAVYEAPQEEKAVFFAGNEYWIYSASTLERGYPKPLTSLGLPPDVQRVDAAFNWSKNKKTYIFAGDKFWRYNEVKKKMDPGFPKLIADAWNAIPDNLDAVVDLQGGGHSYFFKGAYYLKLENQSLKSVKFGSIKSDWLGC
Chain of Cathepsin D (P07339 65-162 limits assumed): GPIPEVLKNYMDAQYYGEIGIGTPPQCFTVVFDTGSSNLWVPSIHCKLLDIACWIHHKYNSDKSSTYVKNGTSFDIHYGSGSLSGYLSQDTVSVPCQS
Chain of Cathepsin D (P07339 169-412 limits assumed): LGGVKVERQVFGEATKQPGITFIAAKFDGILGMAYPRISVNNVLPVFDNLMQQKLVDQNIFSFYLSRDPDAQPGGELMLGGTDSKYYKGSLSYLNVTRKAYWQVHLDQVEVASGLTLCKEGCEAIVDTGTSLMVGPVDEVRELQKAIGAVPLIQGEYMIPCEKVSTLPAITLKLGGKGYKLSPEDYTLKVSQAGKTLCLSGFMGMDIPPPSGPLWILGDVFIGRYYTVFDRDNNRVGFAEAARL

## CN1CCN=C1c1cccc(Oc2nc(Oc3cc(C(=N)N)ccc3O)c(F)c(N(C)CC(=O)O)c2F)c1 [FIDEXABAN]
[1]
  bioavailability: 20%

## CC(=O)NC[C@@H](C=O)NC(=O)[C@H](Cc1ccccc1)NC(=O)[C@H](CC(C)C)NC(=O)OCc1ccccc1 (Cbz-Leu-Phe-[Dap](Ac)-aldehyde)
Enterovirus
  Ki: 6 nM

## CC(C)C(NC(=O)c1ccc(S(=O)(=O)NC(=O)c2ccc(Cl)c(S(=O)(=O)NC(=O)CSc3cc(C(C)(C)C)c(O)c(C(C)(C)C)c3)c2)cc1)C(=O)N1Cc2ccccc2C1C(=O)NC(C(=O)C(F)(F)F)C(C)C (configuration not stated)
[2]
  IC50: 26 nM

## C[C@H](NC(=O)[C@@H](CS)Cc1ccc2c(c1)OCO2)C(=O)O
Neprilysin
  Ki: 5.6 nM

## CC(C)C[C@H](NC(=O)[C@H]1O[C@@H]1C(=O)O)C(=O)NCCCCN=C(N)N [E-64]
[3]
  Inhibition: 90%

## CC(C)(C)C(=O)Oc1ccc(S(=O)(=O)Nc2ccccc2C(=O)NCC(=O)O)cc1
Cricetinae gen. sp.
  ED50: 0.082 mg/kg

## CC(C)(C)NC(=O)[C@@H]1CN(Cc2cccnc2)CCN1C[C@@H](O)C[C@@H](Cc1ccccc1)C(=O)N[C@H]1c2ccccc2C[C@H]1O.O
[4]
  Cmax: 12 µM
[5]; read-out: Bioavailabiility
  bioavailability: 90%
[6]
  Tmax: 1 h

## CNC1CCN(C(=O)C[C@@H](Cc2ccccc2)C(=O)N[C@@H](CSC)C(=O)N[C@@H](CC2CCCCC2)[C@@H](O)C(=O)OC(C)C)CC1
[5]
  bioavailability: 60%
Cathepsin D
  IC50: 550 nM
[7]
  half-life: 2.4 h
Pepsin A
  IC50: 2100 nM
[8]
  bioavailability: 59%
[9]
  bioavailability: > 27%
Renin
  IC50: 4 nM

## COc1cc(C(C)C)c2c(c1)S(=O)(=O)N(COC(=O)c1c(Cl)ccc(OCCN3CCOCC3)c1Cl)C2=O
[10]
  Cmax: 470 ng/mL

## O=C(C[C@H](CSc1ccccc1)C(=O)O)c1ccc(-c2ccc(Cl)cc2)cc1 [TANOMASTAT]
[11]
  Ki: 301 nM
Interstitial collagenase
  Ki: 5000 nM
[12]
  Ki: 11 nM
Collagenase 3
  Ki: 1470 nM

## N=C(N)N1CCC[C@H](C(=O)NC[C@@H]2CCCN2C(=O)[C@H](CO)NS(=O)(=O)c2ccc3ccccc3c2)C1
Prothrombin
  Ki: 3.6 nM
